Source: PubChem BioAssay AID1963437 (Molecular Pharmacology Branch, DTP, NCI, 2024)
Where “and” joins values, the source holds several entries; their conditions need not be identical. Equal entries are not always repeated. One block for each compound: values may come before it.

Tested on: OVCAR-8 complex spheroid, growth inhibition
Test: Anticancer human tumor OVCAR-8 cell line growth inhibition [Asc];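 further: spheroids exposed to agents for 7 days before readout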;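 on viability, T/C: percent viability relative to DMSO vehicle wells taken as 100%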
Details: for viability, T/C: stronger effect = lower value
How it was run: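 Complex solid-tumor spheroids incorporating human endothelial and mesenchymal stem cells received single agents or combinations over half-log dilution ranges anchored to clinical Cmax.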

IC50 (curve of compound): > 10000 nM
SMILES: O=C(c1cc(Cc2n[nH]c(=O)c3ccccc23)ccc1F)N1CCN(C(=O)C2CC2)CC1
viability, T/C (compound 0.0316 µM): 105% and 97.4% and 98.4%
viability, T/C (compound 0.1 µM): 103% (2×) and 97.7%
viability, T/C (compound 0.316 µM): 99% and 82.4% and 107%
viability, T/C (compound 1 µM): 117% and 95.4% and 121%
viability, T/C (compound 3.16 µM): 134% and 104% and 110%
viability, T/C (compound 10 µM): 116% and 122% and 95.5%

IC50 (curve of first compound, second compound 0.00949 µM): 2580 nM
IC50 (curve of first compound, second compound 0.03 µM): 2500 nM
IC50 (curve of first compound, second compound 0.0949 µM): 2720 nM
IC50 (curve of first compound, second compound 0.3 µM): 2660 nM
IC50 (curve of first compound, second compound 0.949 µM): 2490 nM
IC50 (curve of first compound, second compound 3 µM): 2740 nM
SMILES: C=C(F)C(=O)N1CCN(c2nc(OCC3CCCN3C)nc3c2CCN(c2cccc4cccc(Cl)c24)C3)CC1CC#N (centres undefined) + CCN1C(C(=O)NC23CCC(C(=O)O)(CC2)CC3)C(c2cccc(Cl)c2F)C2(C(=O)Nc3cc(Cl)ccc32)C12CCCCC2
viability, T/C (second compound 0.00949 µM, first compound 0.0316 µM): 115%
viability, T/C (second compound 0.00949 µM, first compound 0.1 µM): 86.5%
viability, T/C (second compound 0.00949 µM, first compound 0.316 µM): 103%
viability, T/C (second compound 0.00949 µM, first compound 1 µM): 119%
viability, T/C (second compound 0.00949 µM, first compound 3.16 µM): 38%
viability, T/C (second compound 0.00949 µM, first compound 10 µM): 1.01%
viability, T/C (second compound 0.03 µM, first compound 0.0316 µM): 96.6%
viability, T/C (second compound 0.03 µM, first compound 0.1 µM): 90.2%
viability, T/C (second compound 0.03 µM, first compound 0.316 µM): 92.3%
viability, T/C (second compound 0.03 µM, first compound 1 µM): 107%
viability, T/C (second compound 0.03 µM, first compound 3.16 µM): 38%
viability, T/C (second compound 0.03 µM, first compound 10 µM): 0.56%
viability, T/C (second compound 0.0949 µM, first compound 0.0316 µM): 93.1%
viability, T/C (second compound 0.0949 µM, first compound 0.1 µM): 98.6%
viability, T/C (second compound 0.0949 µM, first compound 0.316 µM): 93.9%
viability, T/C (second compound 0.0949 µM, first compound 1 µM): 116%
viability, T/C (second compound 0.0949 µM, first compound 3.16 µM): 42.3%
viability, T/C (second compound 0.0949 µM, first compound 10 µM): 0.29%
viability, T/C (second compound 0.3 µM, first compound 0.0316 µM): 83.8%
viability, T/C (second compound 0.3 µM, first compound 0.1 µM): 103%
viability, T/C (second compound 0.3 µM, first compound 0.316 µM): 105%
viability, T/C (second compound 0.3 µM, first compound 1 µM): 121%
viability, T/C (second compound 0.3 µM, first compound 3.16 µM): 40.6%
viability, T/C (second compound 0.3 µM, first compound 10 µM): 0.7%
viability, T/C (second compound 0.949 µM, first compound 0.0316 µM): 90.3%
viability, T/C (second compound 0.949 µM, first compound 0.1 µM): 96.8%
viability, T/C (second compound 0.949 µM, first compound 0.316 µM): 102%
viability, T/C (second compound 0.949 µM, first compound 1 µM): 126%
viability, T/C (second compound 0.949 µM, first compound 3.16 µM): 35.9%
viability, T/C (second compound 0.949 µM, first compound 10 µM): 1.05%
viability, T/C (second compound 3 µM, first compound 0.0316 µM): 111%
viability, T/C (second compound 3 µM, first compound 0.1 µM): 97.3%
viability, T/C (second compound 3 µM, first compound 0.316 µM): 140%
viability, T/C (second compound 3 µM, first compound 1 µM): 128%
viability, T/C (second compound 3 µM, first compound 3.16 µM): 40.3%
viability, T/C (second compound 3 µM, first compound 10 µM): 0.52%
